Laboratory results from publication PMC11062899, “De novo development of small cyclic peptides that are orally bioavailable” (Nature Chemical Biology, 2023).
Values joined by “and” are separate entries in the source; they are usually repeats but may differ in a detail not shown here. Equal entries are not always repeated. Where two headings read alike, the source gives them in different places.

Assays:
[1] = Passive artificial membrane permeability (PAMPA);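 for Permeability% Average: top well sample relative to theoretical equilibrium sample by TIC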
[2] = biological target: T1, rat α-thrombin (Rattus norvegicus, UniProt P18292); experiment: Protease inhibition, Ki for rat α-thrombin (fluorogenic substrate Z-Gly-Gly-Arg-AMC); type: biochemical; conditions: for Rat alpha thrombin inhibition, slope normalized to DMSO: replicates R1-R3
T1 construct: rat α-thrombin (Molecular Innovations) were used at final concentrations of 2 nM and 3 nM; purchased Molecular Innovations
Method in brief: (§1)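 Inhibition was measured as AMC fluorescence from 50 μM substrate, monitored for 30 min at 25 °C, relative to a peptide-free control. Human and rat enzymes were present at 2 nM and 3 nM final, respectively, in 50 mM Tris-HCl pH 7.4, 150 mM NaCl, 10 mM MgCl2, 1 mM CaCl2. Ki derives from fitted IC50 via Cheng–Prusoff.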

[3] = biological target: human α-thrombin (Homo sapiens, UniProt P00734); experiment: Protease inhibition, Ki for human α-thrombin (fluorogenic substrate Z-Gly-Gly-Arg-AMC); type: biochemical; conditions: for Human alpha thrombin inhibition, slope normalized to DMSO: replicates R1-R3
Method in brief: as §1

[4] = peptide concentration 1.00E+02 uM
[5] = peptide concentration 1.19E-05 uM
[6] = peptide concentration 1.22E-02 uM
[7] = peptide concentration 1.25E+01 uM
[8] = peptide concentration 1.53E-03 uM
[9] = peptide concentration 1.56E+00 uM
[10] = peptide concentration 1.91E-04 uM
[11] = peptide concentration 1.95E-01 uM
[12] = peptide concentration 2.38E-05 uM
[13] = peptide concentration 2.44E-02 uM
[14] = peptide concentration 2.50E+01 uM
[15] = peptide concentration 3.05E-03 uM
[16] = peptide concentration 3.12E+00 uM
[17] = peptide concentration 3.81E-04 uM
[18] = peptide concentration 3.91E-01 uM
[19] = peptide concentration 4.77E-05 uM
[20] = peptide concentration 4.88E-02 uM
[21] = peptide concentration 5.00E+01 uM
[22] = peptide concentration 6.10E-03 uM
[23] = peptide concentration 6.25E+00 uM
[24] = peptide concentration 7.63E-04 uM
[25] = peptide concentration 7.81E-01 uM
[26] = peptide concentration 9.54E-05 uM
[27] = peptide concentration 9.77E-02 uM

O=C1C[C@H]2CCCN2C(=O)[C@H](Cc2ccccc2)NC(=O)[C@@H](NC(=O)c2ccc(Cl)s2)CCCC=CCCCCN1 [compound 44]
PAMPA permeability: % permeability ([1]; 50 μM, 12–18 h, acceptor concentration relative to equilibrium): 48 ± 19% | Permeability% (single replicates R1–R3) ([1]; 50 μM, 13 h (Fig. 5d)): 26.09% and 53.35% and 63.35% | Permeability% Average ([1]; 50 μM, 13 h (Fig. 5d)): 47.6% | Papp at 50 μM ([1]; PAMPA, pH 7.4): 5.62 ×10⁻⁶ cm/s | Ki ([2]; average of R1-R3, read-out: Rat alpha thrombin inhibition, Ki Average): 252 nM | Rat alpha thrombin inhibition, slope normalized to DMSO [2, 4]: 7.5 and 5.2 and 7.4 | Rat alpha thrombin inhibition, slope normalized to DMSO [2, 5]: 101.0 and 99.4 and 101.8 | Rat alpha thrombin inhibition, slope normalized to DMSO [2, 6]: 100.6 and 96.9 and 105.9 | Rat alpha thrombin inhibition, slope normalized to DMSO [2, 7]: 11.6 and 13.6 and 8.8 | Rat alpha thrombin inhibition, slope normalized to DMSO [2, 8]: 110.9 and 102.8 and 91.9 | Rat alpha thrombin inhibition, slope normalized to DMSO [2, 9]: 29.5 and 31.9 and 33.8 | Rat alpha thrombin inhibition, slope normalized to DMSO [2, 10]: 101.7 (2×) and 104.1 | Rat alpha thrombin inhibition, slope normalized to DMSO [2, 11]: 57.9 and 68.0 and 74.9 | Rat alpha thrombin inhibition, slope normalized to DMSO [2, 12]: 95.3 and 93.1 and 98.0 | Rat alpha thrombin inhibition, slope normalized to DMSO [2, 13]: 87.6 and 90.4 and 103.1 | Rat alpha thrombin inhibition, slope normalized to DMSO [2, 14]: 10.8 and 13.8 and 2.6 | Rat alpha thrombin inhibition, slope normalized to DMSO [2, 15]: 84.4 and 99.6 and 89.5 | Rat alpha thrombin inhibition, slope normalized to DMSO [2, 16]: 19.8 and 21.4 and 23.1 | Rat alpha thrombin inhibition, slope normalized to DMSO [2, 17]: 100.0 and 99.2 and 101.2 | Rat alpha thrombin inhibition, slope normalized to DMSO [2, 18]: 59.7 and 45.3 and 63.3 | Rat alpha thrombin inhibition, slope normalized to DMSO [2, 19]: 96.9 and 93.8 and 94.4 | Rat alpha thrombin inhibition, slope normalized to DMSO [2, 20]: 85.6 and 100.2 and 83.3 | Rat alpha thrombin inhibition, slope normalized to DMSO [2, 21]: 7.6 and 10.7 and 9.3 | Rat alpha thrombin inhibition, slope normalized to DMSO [2, 22]: 100.9 and 96.3 and 102.1 | Rat alpha thrombin inhibition, slope normalized to DMSO [2, 23]: 12.6 and 18.3 and 16.4 | Rat alpha thrombin inhibition, slope normalized to DMSO [2, 24]: 96.9 and 104.7 and 92.6 | Rat alpha thrombin inhibition, slope normalized to DMSO [2, 25]: 48.7 and 32.2 and 42.2 | Rat alpha thrombin inhibition, slope normalized to DMSO [2, 26]: 95.8 and 96.9 and 102.0 | Rat alpha thrombin inhibition, slope normalized to DMSO [2, 27]: 78.0 and 74.1 and 90.2 | IC50 ([2]; single replicates R1-R3, read-out: Rat alpha thrombin inhibition, IC50): 451 nM and 308 nM and 605 nM | Ki ([2]; single replicates R1-R3, read-out: Rat alpha thrombin inhibition, Ki): 250 nM (2×) and 171 nM (2×) and 335 nM (2×) | Ki ([3]; average of R1-R3, read-out: Human alpha thrombin inhibition, Ki Average): 1160 nM | Human alpha thrombin inhibition, slope normalized to DMSO [3, 4]: 21.2 and 22.5 and 13.5 | Human alpha thrombin inhibition, slope normalized to DMSO [3, 5]: 107.9 and 108.1 and 100.7 | Human alpha thrombin inhibition, slope normalized to DMSO [3, 6]: 45.0 and 106.0 and 79.1 | Human alpha thrombin inhibition, slope normalized to DMSO [3, 7]: 20.5 and 29.2 and 28.2 | Human alpha thrombin inhibition, slope normalized to DMSO [3, 8]: 70.8 and 98.2 and 101.6 | Human alpha thrombin inhibition, slope normalized to DMSO [3, 9]: 57.8 and 72.9 and 62.5 | Human alpha thrombin inhibition, slope normalized to DMSO [3, 10]: 100.2 and 106.6 and 100.4 | Human alpha thrombin inhibition, slope normalized to DMSO [3, 11]: 100.6 and 90.9 and 89.3 | Human alpha thrombin inhibition, slope normalized to DMSO [3, 12]: 109.7 and 103.6 and 106.2 | Human alpha thrombin inhibition, slope normalized to DMSO [3, 13]: 86.3 and 104.2 and 79.8 | Human alpha thrombin inhibition, slope normalized to DMSO [3, 14]: 13.8 and 27.1 and 20.7 | Human alpha thrombin inhibition, slope normalized to DMSO [3, 15]: 101.3 and 97.0 and 101.4 | Human alpha thrombin inhibition, slope normalized to DMSO [3, 16]: 19.7 and 40.6 and 23.4 | Human alpha thrombin inhibition, slope normalized to DMSO [3, 17]: 71.5 and 115.8 and 100.2 | Human alpha thrombin inhibition, slope normalized to DMSO [3, 18]: 64.9 and 85.6 and 86.8 | Human alpha thrombin inhibition, slope normalized to DMSO [3, 19]: 107.4 and 99.0 and 99.6 | Human alpha thrombin inhibition, slope normalized to DMSO [3, 20]: 103.0 and 102.1 and 95.7 | Human alpha thrombin inhibition, slope normalized to DMSO [3, 21]: 20.6 and 21.0 and 15.4 | Human alpha thrombin inhibition, slope normalized to DMSO [3, 22]: 86.7 and 105.1 and 95.4 | Human alpha thrombin inhibition, slope normalized to DMSO [3, 23]: 41.3 and 33.5 and 28.3 | Human alpha thrombin inhibition, slope normalized to DMSO [3, 24]: 100.0 and 108.8 and 108.6 | Human alpha thrombin inhibition, slope normalized to DMSO [3, 25]: 74.4 and 82.4 and 81.1 | Human alpha thrombin inhibition, slope normalized to DMSO [3, 26]: 104.7 and 102.3 and 88.7 | Human alpha thrombin inhibition, slope normalized to DMSO [3, 27]: 98.8 and 95.6 and 95.8 | IC50 ([3]; single replicates R1-R3, read-out: Human alpha thrombin inhibition, IC50): 1300 nM and 1670 nM and 1530 nM | Ki ([3]; single replicates R1-R3, read-out: Human alpha thrombin inhibition, Ki): 1 µM (2×) and 1.29 µM (2×) and 1.18 µM (2×)
